According to patent EP1140984B1, “SELECTIVE INHIBITORS OF MMP-12” (Aventis Pharmaceuticals Inc., priority 1998, dated 2000):
Where a name gives a salt, the structure may show the parent alone.

Key:
MMP-3 = target: T1, MMP-3 (Homo sapiens, UniProt P08254); assay: Determination of inhibition constant (Ki) for MMP-3, fluorogenic substrate assay; format: biochemical; details: substrate Mca-Pro-Leu-Gly-Leu-Dpa-Ala-Arg-NH2, 37°C, pH 7.6, [S] = 1 µM, [MMP-3] = 1 nM
T1 construct: The active MMP-3 was obtained by treatment of proMMP-3 with trypsin; endogenous in cells; host or cells: human rheumatoid synovial fibroblasts stimulated with macrophage-conditioned medium
T1 sequence (P08254 100-477): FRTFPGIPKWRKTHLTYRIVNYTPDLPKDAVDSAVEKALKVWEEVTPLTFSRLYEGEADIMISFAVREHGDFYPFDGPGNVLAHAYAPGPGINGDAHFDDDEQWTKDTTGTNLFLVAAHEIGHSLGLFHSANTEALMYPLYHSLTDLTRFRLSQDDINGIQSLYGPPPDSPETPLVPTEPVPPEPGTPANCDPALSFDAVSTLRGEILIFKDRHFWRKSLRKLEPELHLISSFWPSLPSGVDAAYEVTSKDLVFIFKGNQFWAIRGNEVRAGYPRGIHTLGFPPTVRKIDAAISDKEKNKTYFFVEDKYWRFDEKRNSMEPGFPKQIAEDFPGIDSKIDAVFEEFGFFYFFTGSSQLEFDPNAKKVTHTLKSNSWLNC
Method: ProMMP-3 (EC 3.4.24.17; Stromelysin-1) was purified from culture medium of human rheumatoid synovial fibroblasts stimulated with macrophage-conditioned medium according to Okada, Y. et al., J. Biol. Chem. 261, 14245-14255 (1986). The active MMP-3 was obtained by treatment of proMMP-3 with trypsin (5 µg/mL) at 37°C for 30 minutes, followed by addition of soybean trypsin inhibitor (50 µg/mL). Aliquots of the activated MMP-3 were stored at -20°C.
The activated MMP-3 is assayed using a fluorogenic substrate, Mca-Pro-Leu-Gly-Leu-Dpa-Ala-Arg-NH2, Knight, C.G. et al., FEBS Lett. 296, 263-266 (1992), at 37°C in an assay buffer containing 50 mM Tris, pH 7.6, 0.2 M sodium chloride, 50 mM calcium chloride, and 0.02% Brij-35. The increase in fluorescence due to cleavage of Gly-Leu peptide bond by MMP-3 was monitored with Perkin-Elmer LS50B Fluorimeter (λex 328 nm, λem 393 nm, excitation slit 2.5, emission slit 10). Substrate and inhibitor stock solutions were made in DMF and 0.1% HCI-DMF, respectively. For determination of Ki values for MMP-3 inhibitors, a series of intermediate inhibitor solutions were prepared in 0.1% HCl-DMF and 1 or 2 µL of the diluted inhibitor solution was mixed with 1 µL of 2 mM substrate solution in DMF in a quartz cuvette containing 2 mL of assay buffer. The enzyme (10 µL of 0.2 µM MMP-3 dilution in assay buffer) was added at the last to start the reaction. For routine measurement of a Ki value for a reversible, competitive inhibitor, the initial rates in the presence of at least four inhibitor concentrations (two concentrations above Ki and two concentrations below Ki) were measured using [S] = 1 µM (<< Km) and [MMP-3] = 1 nM. Under these conditions, the measured Ki, app is close to true Ki.
The Ki for a competitive inhibitor is calculated using: v0/vi = (1 + [I]/Ki, app) and Ki = Ki, app/(1 + [S]/Km), where v0 is the initial rate in the absence of inhibitor, vi is the initial rate in the presence of inhibitor at the concentration of [I], [S] is the substrate concentration, and Km is the Michaelis constant. If slow binding is observed (i.e. if the approach to the binding equilibrium is slow), the final steady-state rate rather than the initial rate is taken as vi.

MMP-12 = target: T2, MMP-12 (Homo sapiens, UniProt P39900); assay: Determination of inhibition constant (Ki) for MMP-12 (macrophage metalloelastase), fluorogenic substrate assay, cuvette or microtiter plate; format: biochemical; details: substrate Mca-Pro-Leu-Gly-Leu-Dpa-Ala-Arg-NH2, 25°C, pH 7.6, [MMP-12] = 2 nM
T2 construct: made in house
T2 sequence (P39900 106-263 limits assumed): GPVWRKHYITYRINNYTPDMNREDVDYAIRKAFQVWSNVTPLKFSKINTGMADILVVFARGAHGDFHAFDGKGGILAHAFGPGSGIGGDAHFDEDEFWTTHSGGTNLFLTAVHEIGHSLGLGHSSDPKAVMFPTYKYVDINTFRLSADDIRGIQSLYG
Method: MMP-12 (EC 3.4.24.65) was cloned, expressed and purified according to Shapiro, S.D. et al., J Biol. Chem. 268, 23824-23829 (1993). […] Aliquots of MMP-12 were stored at -70C.
The potency of inhibitors of MMP-12 was measured using either quartz cuvettes or microtiter plates. The activity of MMP-12 was measured using a fluorogenic substrate, Mca-Pro-Leu-Gly-Leu-Dpa-Ala-Arg-NH2, Knight, C.G. et al., FEBS Lett. 296, 263-266 (1992), at 25°C in an assay buffer containing 50 mM Tris, pH 7.6, 0.2 M sodium chloride, 50 mM calcium chloride, and 0.02% Brij-35. The increase in fluorescence due to cleavage of Gly-Leu peptide bond by MMP-12 was monitored with a Perkin-Elmer LS50B Fluorimeter (λex 328 nm, λem 393 nm, excitation slit 2.5, emission slit 10) for the cuvette assay and with a Molecular Devices Fmax fluorescence plate reader (λex 320 nm, λem 405 nm) for the microtiter plate assay. Substrate and inhibitor stock solutions were made in N,N-dimethylformamide (DMF) and 0.1% HCl-DMF, respectively.
Ki values were determined using the cuvette method by preparing a series of intermediate inhibitors solutions in 0.1% HCl-DMF and mixing the inhibitor with substrate (final concentration 2 µM) in a quartz cuvette containing 2 ml of assay buffer. MMP-12 was added to start the reaction at a concentration of 2 nM and progress curves were generated. For routine measurement of a Ki value for a reversible competitive inhibitor, the initial rates in the presence of at least four inhibitor concentrations (two concentrations above and two concentrations below the Ki) were measured [S] = 2 µM (<<Km) and [MMP-12] = 2 nM. Under these conditions, the measured Ki,app is close to the true Ki.
Ki values were determined using the microtiter plate method in a manner similar to that described for the cuvette method with some modifications. Four different inhibitor concentrations (50 µl in assay buffer) of each compound were added to separate wells of a microtiter plate and substrate was added (100 µl) to get a final concentration of […]. MMP-12 was added to a final concentration of 2 nM (50 µl) to start the reaction. Cleavage of substrate was recorded every 30 seconds for 30 minutes and progress curves were generated.
The Ki for a competitive inhibitor was calculated using: Vo/Vi = (1+[I]/Ki,app) and Ki = Ki,app/(1+[S]/Km), where Vo is the initial rate in the absence of inhibitor, Vi is the initial rate in the presence of inhibitor at the concentration of [I], [S] is the substrate concentration, and Km is the Michaelis constant. If slow binding is observed (i.e. if the approach to the binding equilibium is slow), the final steady-state rate rather than the initial rate is taken as Vi.

For CC(C)[C@H](S)C(=O)N[C@@H](CCc1ccccc1)C(=O)N[C@@H](Cc1ccccc1)C(=O)O [Example 2, (S)-2-Mercapto-3-methylbutyroyl-(L)-homo-phenylalanyl-(L)-phenylalanine], which Ki (MMP-3) is on record?
Its Ki is 365 nM.

And the Ki (MMP-12)?
The Ki was 4 nM.

What does the source list for CSCC[C@H](NC(=O)C(S)C(C)C)C(=O)N[C@@H](Cc1ccccc1)C(=O)O (stereo in doubt) [Example 4, (S)-2-Mercapto-3-methylbutyroyl-(L)-methionyl-(L)-phenylalanine]?
Ki (MMP-3): 449 nM; Ki (MMP-12): 14 nM

How did the Ki (MMP-3) turn out when CNC(=O)[C@H](Cc1ccccc1)NC(=O)[C@H](CCc1ccccc1)NC(=O)[C@@H](S)C(C)C [Example 7, (S)-2-Mercapto-3-methylbutyroyl-(L)-homo-phenylalanyl-(L)-phenylalanine N-methyl amide] was run?
The Ki was 10 nM.

And the Ki (MMP-12)?
The Ki was 0.6 nM.

Which results are given for CCCC(S)C(=O)N[C@@H](CCc1ccccc1)C(=O)N[C@@H](Cc1ccccc1)C(=O)O (some centres unmarked) [Example 1, 2-Mercapto-pentanoyl-(L)-homo-phenylalanyl-(L)-phenylalanine]?
Ki (MMP-3): 750 nM; Ki (MMP-12): 13 nM

With CCCC(S)C(=O)N[C@@H](CCc1ccccc1)C(=O)N[C@@H](Cc1ccccc1)C(=O)NC (stereo partly drawn) [Example 6, (S)-2-Mercaptopentanoyl-(L)-homo-phenylalanyl-(L)-phenylalanine N-methyl amide] as the molecule, how does the Ki (MMP-3) read?
The Ki was 14 nM.

What about the Ki (MMP-12) of the same molecule?
Its Ki is 14 nM.

How did the Ki (MMP-3) turn out when CC(C)C[C@H](NC(=O)C(S)C(C)C)C(=O)N[C@@H](Cc1ccccc1)C(=O)O (stereo in doubt) [Example 3, (S)-2-Mercapto-3-methylbutyroyl-(L)-leucyl-(L)-phenylalanine] was run?
The Ki was 1410 nM.

And the Ki (MMP-12)?
The Ki was 14 nM.

Which results are given for CC(C)C(S)C(=O)N[C@@H](CCCCN)C(=O)N[C@@H](Cc1ccccc1)C(=O)O (stereo in doubt) [Example 5, (S)-2-Mercapto-3-methylbutyroyl-(L)-lysyl-(L)-phenylalanine trifluoroacetic acid salt]?
Ki (MMP-3): 1550 nM; Ki (MMP-12): 151 nM
